Results: US20110100079A1, “METHOD FOR IMPARTING STRESS TOLERANCE TO PLANT” (priority 2007, published 2011)

Experiments:
Format in all cases: in vivo
“Momotaro” tomato [1] = assay: Example 4 salt stress tolerance imparting test (tomato, tap water + NaCl); details: tap water + NaCl 3510 ppm, leaf, 100 ppm, 2 weeks
Excerpt: NaCl concentration 3510 ppm (water potential by NaCl: […]) (4) Cultivation period: two weeks (5) Plant preparation: A 50-cell tray was filled with Kureha gardening soil manufactured by Kureha Corporation (fertilizer components: N:P:K=0.4:1.9:0.6 g/kg soil), and seeds of a “Momotaro” tomato were sowed, thinly covered with Kureha gardening soil, and sufficiently irrigated to allow the seeds to sprout. When the leaves in the 2-leaf stage fully unfolded, the soil on the tomato roots was carefully washed away with running water, and a test was performed. (6) The chemicals used and the concentration of a treatment solution were as in Example 1 (7) Amount of application: 10 ml/specimen for leaf spraying, 50 ml/specimen for fertigation Method of Salt Stress Tolerance Imparting Test […]

“Momotaro” tomato [2] = assay: Example 3 drying stress tolerance imparting test (tomato); details: pF 2.3, leaf, 100 ppm once a week, 3 weeks
Experimental: Other cultivation conditions were as with the conditions of the drying stress test. Drying stress conditions: soil pF value: 2.3, 2.5, or 2.9, cultivation temperature: 23° C., relative humidity: 50%, illuminance: 5000 Lux (fluorescent light), light/dark cycle: 16 hours/8 hours (2) Cultivation period: 3 weeks (3) Soil: Kureha gardening soil manufactured by Kureha Corporation (fertilizer components: N:P:K=0.4:1.9:0.6 g/kg soil) (4) Plant preparation: A 50-cell tray was filled with Kureha gardening soil manufactured by Kureha Corporation (fertilizer components: N:P:K=0.4:1.9:0.6 g/kg soil), and seeds of a “Momotaro” tomato were sowed, thinly covered with Kureha gardening soil, and sufficiently watered to allow the seeds to sprout. When the leaves in the 2-leaf stage fully unfolded, the soil on the tomato roots was carefully washed away with running water, and a test was performed. (5) The chemicals used and the amount of a treatment solution applied were as in Example 1. (6) Amount of treatment solution applied: 10 ml/specimen for leaf spraying, 50 ml/specimen for fertigation Method of Drying Stress Tolerance Imparting Test Five tomato specimens as prepared above were planted in a 60-cm planter placed on a plant culture rack in an air-conditioned room. […] From immediately after planting the tomatoes, a treatment solution of Table 1 was sprayed onto the leaves or applied to the underground portions once a week. […] Five specimens (per planter) were prepared for each of the test plot and the control plots, plant bodies were collected 3 weeks after the beginning of the test such that the roots were not cut, the soil was washed away with running water, the fresh plant body-weights were measured, and a plant stress level and an extent of imparting plant stress tolerance were calculated according to Formula (ii) and (iii) above using the average of the weights.

[3] = system: Potato Variety: Toyoshiro; assay: Example 5 drying stress tolerance imparting test (potato variety Toyoshiro); details: pF 2.3, leaf, 100 ppm once a week, 3 weeks
Experimental: Other cultivation conditions were the same as the conditions of the drying stress test. Drying stress conditions: soil pF value: 2.3, 2.5, or 2.9, cultivation temperature: 23° C., relative humidity: 50%, illuminance: 5000 Lux (fluorescent light), light/dark cycle: 16 hours/8 hours (2) Cultivation Period: 3 weeks (3) Soil: Kureha gardening soil manufactured by Kureha Corporation (fertilizer components: N:P:K=0.4:1.9:0.6 g/kg soil) (4) The chemicals used and the amount of a treatment solution applied were the same as in Example 3. Method of Drying Stress Tolerance Imparting Test A planter (60 cm) was filled with Kureha gardening soil manufactured by Kureha Corporation (fertilizer components: N:P:K=0.4:1.9:0.6 g/kg soil) in a glass greenhouse, tubers of a “Thyoshiro” potato were cut in half: and 5 pieces thereof were planted in the planter, thinly covered with Kureha gardening soil, and sufficiently watered to allow the tubers to sprout. When the leaves in the 3-leaf stage fully unfolded, the Solarium tuberosu was relocated on a plant culture rack in an air-conditioned room, and a test was initiated. […] From immediately after the beginning of the test, a treatment solution of Table 1 was sprayed onto the leaves or applied to the underground portions once a week. […] Five specimens (per planter) were prepared for each of the test plot and the control plots, plant bodies were collected 3 weeks after the beginning of the test such that the roots were not cut, the soil was washed away with running water, the fresh plant body weights were measured, and a plant stress level and an extent of imparting plant stress tolerance were calculated according to Formula (ii) and (iii) above using the average of the weights.

“Momotaro” tomato [4] = assay: Example 2 temperature stress tolerance imparting test (tomato); details: 32° C., leaf, 100 ppm, 2 weeks
Experimental: Other cultivation conditions were the same as the conditions of the temperature stress test. […] (2) Solution culture medium: […] Method of Temperature Stress Tolerance Imparting Test The temperature in a climatic chamber was controlled so as to be 10, 15, or 32° C. The environmental conditions were controlled so as to have an illuminance by a fluorescent light of 5000 Lux and a daily light-dark cycle of a 16-hour light period and a 8-hour dark period. In this test, a temperature of 23° C. at which the optimum growth was observed was regarded as a reference temperature (temperature stress-free test condition), and a stress was imposed by applying a temperature higher or lower than the reference temperature. A tomato as prepared above was planted in a 250 ml polyethylene bottle filled with the solution culture medium (½ Otsuka A formulation). A treatment solution as presented in Table 1 was sprayed onto the leaves or applied to the underground portion. […] Ten specimens were prepared for each of the test plot and the control plots, and a plant stress level and an extent of imparting plant stress tolerance were calculated according to Formula (ii) and (iii) above using as a fresh plant body weight the average of the fresh plant body weights of each specimen 2 weeks after the beginning of the test.

“Momotaro” tomato [5] = assay: Standard test: standard extent of imparting plant salt stress tolerance; details: 100 ppm sprayed onto leaves 10 ml/specimen, NaCl 3510 ppm in tap water, fresh weight after 2 weeks vs salt-stressed untreated control plot 1
Experimental: Standard Test (I) Plant Preparation A 50-cell tray is filled with potting soil (fertilizer components: N:P:K=0.4:1.9:0.6 (g)/kg potting soil); and seeds of a “Momotaro” tomato (Takii Co., Ltd.) are sowed, thinly covered with potting soil, and sufficiently irrigated to allow the seeds to sprout. When the leaves in the 2-leaf stage are fully unfolded, the soil on the tomato roots is washed away with running water, and a test is performed. For the potting soil, Kureha gardening soil manufactured by Kureha Corporation may be used. (II) Test Condition Setting The environmental conditions are controlled such that the temperature is 23° C., the relative humidity is 50%, the illuminance is 5000 Lux, and the daily light-dark cycle includes a 16-hour light period and an 8-hour dark period. Such environmental conditions can be obtained by, for example, controlling the temperature in a room or a climate chamber where the temperature and the relative humidity can be controlled, and controlling illuminance by a fluorescent light or the like. […] (III) Treatment with Plant Stress Tolerance Imparting Composition […] A known surfactant or a like material that barely affects the plant may be used in the preparation of an aqueous dispersion. Test plot: An aqueous solution or an aqueous dispersion of a test compound (sugar derivative-type surfactant) (concentration: 100 ppm) is sprayed onto the leaves in an amount of 10 ml per tomato specimen. […] NaCl is added to a solution culture medium (creating a salt stress), but no test compound (plant stress tolerance imparting composition) is given to the tomato. Control plot 2: No NaCl is added to a solution culture medium (creating no salt stress), and no test compound (plant stress tolerance imparting composition) is given to the tomato. (IV) Calculation of Standard Extent of Imparting Plant Salt Stress Tolerance (%) […] The plant stress level (standard plant salt stress level) attained in the above-described standard test is about 130%. In this regard, the standard plant salt stress level can be calculated according to Formula (ii)′ below.

Question: For “Sucrose fatty acid ester (C18, HLB = 5) [Product of present invention 17]”, which “Extent of imparting plant stress tolerance” value (“Momotaro” tomato [1]) is on record?
Answer: Its value is 113%.

Question: And the “Extent of imparting plant stress tolerance” value (“Momotaro” tomato [2])?
Answer: The value was 112%.

Question: And the “Extent of imparting plant stress tolerance” value [3]?
Answer: The value was 114%.

Question: What about the “Extent of imparting plant stress tolerance” value (“Momotaro” tomato [4]) of the same substance?
Answer: The value was 111%.

Question: What about the “Standard extent of imparting plant salt stress tolerance” value (“Momotaro” tomato [5]) of the same substance?
Answer: Its value is 113%.
